Source: PubChem BioAssay AID1996
Values after ≈ are worked out from the molar mass of the structure shown.

Details: buffer; pH 7.4; 200.0 µM

Structure (SMILES) | solubility kinetic [µg/mL]
O=C(COC(=O)c1ccc(Br)o1)Nc1ccc(F)cc1[N+](=O)[O-] | 8.2 (≈ 21.2 µM)
Cc1cc(=O)c2ccc(C(F)(F)F)cc2[nH]1 | > 34.1
CCOC(=O)c1sc(=S)n(C)c1NC(=O)c1ccc(OC)cc1 | 9.1 (≈ 25.8 µM)
Cc1ccnc(NC(=O)c2ccc(Cl)s2)c1 | 16.1 (≈ 63.7 µM)
CCCCN(C(=O)CN(C)CC(=O)Nc1cccc(OC)c1)c1c(N)n(CCCC)c(=O)[nH]c1=O | > 73.3
CC(C)C1/C(=N/O)CC(c2ccccc2)NC1c1ccccc1 (stereo unspecified) | < 0.3
CCSC1=NN2CCS(=O)(=O)N=C2S1 | > 37.7
CC(C)c1ccc(-c2csc3nc[nH]c(=O)c23)cc1 | 9.1 (≈ 33.7 µM)
COc1ccc(-c2csc(Nc3ccc(C)cn3)n2)cc1OC | 1.3 (≈ 3.97 µM)
CC(=O)Nc1ccc(S(=O)(=O)N(C)C2CCN(C)CC2)cc1 | > 48.8
COC(=O)c1ccc(C(=S)N2CCCCC2)cc1 | > 39.5
CC(=O)c1c(C)[nH]c(C(=O)OCc2cccc(C)c2)c1C | 4.2 (≈ 14.7 µM)
CN(CC(=O)Nc1cccc(F)c1)CC(=O)Nc1ccccc1[N+](=O)[O-] | 49.7 (≈ 138 µM)
CC1CCC(NC(=O)c2cc3ccccc3cc2O)CC1 (stereo unspecified) | 4.3 (≈ 15.2 µM)
CCN(C(=O)COC(=O)c1ccc[nH]c1=O)c1cccc2ccccc12 | > 52.6
CCc1ccc(NC(=O)COC(=O)CC2CCCC2)cc1 | 26 (≈ 89.8 µM)
CCOC(=O)c1cc2c(ccn2C)n1CC(=O)N(C)C | > 41.6
CC1CCN(C(=O)CSc2nc3ncccc3[nH]2)CC1 | > 43.6
O=C(CCSCc1ccccc1F)NCc1cccnc1 | > 45.7
COc1ccc(Cl)cc1C(=O)Nc1ccc2c(c1)OCCO2 | 0.9 (≈ 2.81 µM)
O=S1(=O)CCN(Cc2csc(-c3cccs3)n2)CC1 | > 47.2
O=C(COc1ccc(S(=O)(=O)N2CCCCC2)cc1)N1CCCC1 | > 52.9
CCn1c(C)nc2cc(C(=O)NNC(=O)CN(C)S(=O)(=O)c3ccc(NC(C)=O)cc3)ccc21 | > 73
O=C(CN1C(=O)c2ccccc2S1(=O)=O)c1ccccc1F | 17.8 (≈ 55.7 µM)
O=S(=O)(Nc1ccccn1)c1cccs1 | > 36

Structure (SMILES) | solubility kinetic [µg/mL]
COc1ccc(C2c3ccsc3CCN2C(=O)NC(C)(C)C)cc1 (stereo unspecified) | 1.5 (≈ 4.35 µM)
O=C1OC(Nc2ccc(F)c([N+](=O)[O-])c2)c2ccccc21 (stereo unspecified) | 42.6 (≈ 148 µM)
CC1(C)NC(=O)N(CC(=O)OCC(=O)c2ccc(Br)s2)C1=O | > 58.4
COCCNC(=O)c1cc2cc3ccc(OC)cc3nc2o1 | 42.1 (≈ 140 µM)
O=C(O)c1cc(=O)n(Cc2ccccc2)c(=O)[nH]1 | > 36.9
CC(C)CNC(=O)CO/N=C/c1ccccc1Cl | > 40.3
COc1ccc(C(=O)Nc2ccccc2NC(=O)c2ccc(OC)cc2)cc1 | < 0.4
Cc1ccc(NC(=O)c2ccc3nccnc3c2)c(C)c1 | > 41.6
CCOC(=O)c1sc(SC)nc1N | 22.2 (≈ 102 µM)
C=CCN(CC(=O)Nc1cccnc1)S(=O)(=O)c1ccc(Cl)cc1 | > 54.9
Cc1nc(N)nc(N)c1CCCc1ccc(Cl)c(Cl)c1 | > 46.7
NS(=O)(=O)c1ccc(CCNC(=O)COC(=O)CCc2c[nH]c3ccccc23)cc1 | > 64.4
C=C1CCc2c([nH]c3ccc(OCC(C)C)cc23)C1=O | 0.8 (≈ 2.97 µM)
COc1ccc(N(C)S(=O)(=O)c2cccc(C(=O)OCC(=O)N3CC(C)CC(C)C3)c2)cc1 (stereo unspecified) | 7.3 (≈ 15.4 µM)
Cc1ccc(Cn2cc(C=O)c3ccccc32)cc1 | 11.7 (≈ 46.9 µM)
CN1CCN(C(=O)CCC(=O)NCc2ccc(F)cc2)CC1 | 45.7 (≈ 149 µM)
CSc1ncccc1C(=O)Nc1ncc(C)s1 | 5.7 (≈ 21.5 µM)
Cc1cc(S(=O)(=O)Nc2cccc(Cl)c2)c(C)s1 | 37.4 (≈ 124 µM)
COc1ccc(NC(=O)Cn2cc(C(C)=O)c3ccccc32)cc1 | 0.5 (≈ 1.55 µM)
CC1CCN(C2(O)C(=O)Nc3ccc(Cl)cc32)CC1 (stereo unspecified) | > 42.1
Cc1ccc(C)c(C(=O)CN2Cc3ccccc3C2=O)c1 | 6.1 (≈ 21.8 µM)
CCC(C)[C@H](NC(=O)N1CCC(Cc2ccccc2)CC1)C(=O)O (stereo partly specified) | > 49.9
Cc1nnc(SCc2cc(=O)[nH]c(=S)[nH]2)s1 | > 40.9
CCCNC(=O)N1c2ccccc2Sc2ccccc21 | 33.6 (≈ 118 µM)
CCc1cc2c(CN(C)Cc3ccccc3F)cc(=O)oc2cc1O | 9.5 (≈ 27.8 µM)

Structure (SMILES) | solubility kinetic [µg/mL]
COc1cc(C(=O)OCC(C)=O)cc(NC(=O)c2ccco2)c1OC | 2.4 (≈ 6.91 µM)
COc1ccc(NC(=O)Nc2cc(F)ccc2C)cc1 | 1.2 (≈ 4.37 µM)
CN(Cc1nc(-c2ccccc2)no1)C(=O)c1ccco1 | > 42.5
Cc1cc(C(=O)Nc2ccc(N3CCCCC3)cc2)no1 | 6.8 (≈ 23.8 µM)
Cc1ccc(CN2CCCN(Cc3ccccc3C)S2(=O)=O)cc1 | 0.5 (≈ 1.45 µM)
COc1ccccc1CNC1CCN(Cc2ccccc2)CC1 | > 46.6
O=C(COc1ccccc1[N+](=O)[O-])OCC(=O)c1ccc(Br)s1 | 59.9 (≈ 150 µM)
Cc1c(C(=O)NC2CCCCC2)oc2ccc(F)cc12 | 2.8 (≈ 10.2 µM)
CC1CCN(CC(O)COc2ccc(C(=O)c3ccccc3)cc2)CC1 (stereo unspecified) | > 53
N#CCCOC1(C#CCN2CCCC2)CCCCC1 | 32.2 (≈ 124 µM)
CC1CCCCC1NCC(=O)Nc1ccccc1C(=O)Nc1ccccc1 (stereo unspecified) | 4 (≈ 10.9 µM)
COC(=O)c1cc(-n2cccc2)ccc1N1CCOCC1 | 35.6 (≈ 124 µM)
CCOc1ccc(-c2cnc3n2CCCCC3)cc1 | 32 (≈ 125 µM)
NC(=O)NC(=O)COC(=O)c1ccc(OC(F)F)cc1 | 9.9 (≈ 34.4 µM)
Cc1c(C(=O)C(=O)NCC2CCCO2)c2ccccc2n1C (stereo unspecified) | > 45.1
CC1C(=O)N2CCCc3cc(NS(=O)(=O)c4ccccc4)cc1c32 (stereo unspecified) | > 51.4
NC(=O)/C=C/C(=O)Nc1ccc(Cl)cc1 | > 33.7
CCN(CC)CCNC(=O)COc1ccc(OC)cc1 | 32 (≈ 114 µM)
Nc1cccc(C(=O)Nc2cccc3ncccc23)c1 | > 39.5
Cc1ccc2c(C)c(C(=O)NCCN3CCCC(O)C3)oc2c1C (stereo unspecified) | 42.3 (≈ 128 µM)
Cc1ccccc1-c1noc(CNC(=O)c2ccco2)n1 | > 42.5
C[C@@H]1NC(=O)N(c2ccc(F)cc2)C1=O | 31.1 (≈ 149 µM)
COC(=O)CNC(=O)c1ccc(F)cc1 | 27.1 (≈ 128 µM)
CC(NC(=O)C1CC1)C(c1cccs1)N1CCOCC1 (stereo unspecified) | > 44.2
Cc1cc2nsnc2c(S(=O)(=O)N2CCN(C)CC2)c1C | 47.9 (≈ 147 µM)

Structure (SMILES) | solubility kinetic [µg/mL]
O=C(O)Cn1cnc2c(oc3ccccc32)c1=O | > 36.6
Cn1ccnc1C(=O)Cc1ccc([N+](=O)[O-])cc1 | 35.2 (≈ 144 µM)
COc1ccc(-n2c(C)c(C(=O)O)c3cc(OC)c4ccccc4c32)cc1 | < 0.8
Brc1ccc(CN2CCN(c3ccccc3)CC2)o1 | 22.5 (≈ 70 µM)
CC(=O)CCn1cc([N+](=O)[O-])nc1C | > 29.6
O=C(NCCN1CCOCC1)c1cc(Br)ccc1Cl | > 52.1
Cc1cc(Nc2cc(Cl)cc(Cl)c2)nc(N)n1 | 20 (≈ 74.3 µM)
C=CCN1C(=O)C2(OCCO2)c2cc(C)ccc21 | > 36.8
COc1ccc2oc(C(=O)OCC(=O)N3C(C)CCCC3C)c(C)c2c1 (stereo unspecified) | 31.9 (≈ 88.8 µM)
CC(C)[C@H](Nc1ccc(C(F)(F)F)cc1[N+](=O)[O-])C(=O)O.[Cl-] | > 51.3
COCC(C)n1c(SCC(=O)NC2CCCCC2C)nc2ccccc2c1=O (stereo unspecified) | > 60.5
CC(NC(=O)C(=O)NCCc1c[nH]c2ccccc12)c1ccccc1 (stereo unspecified) | < 0.2
CC(=O)NC(CC(=O)OCC(=O)c1cc(C)ccc1C)c1ccccc1 (stereo unspecified) | > 53
COCCCNc1nc2ccccc2[nH]c1=O | > 35
CSCCC(NC(=O)c1ccccc1Cl)C(=O)NCCc1ccccn1 (stereo unspecified) | > 58.8
O=C(NC(=S)NCCC1=CCCCC1)c1cccnc1 | 22.2 (≈ 76.7 µM)
COc1ccc(NC(=O)c2ccc(Cl)cc2)c[n+]1[O-] | > 41.8
CNC(=O)CSc1nc(-c2ccccc2)c(-c2ccccc2)o1 | 3.3 (≈ 10.2 µM)
O=C(NCCCn1ccnc1)c1ccc(C(F)(F)F)cc1 | > 44.6
NC1=Nc2cccc3cccc1c23 | 23.2 (≈ 138 µM)
O=C(Nc1cccc2ncccc12)c1ccccc1Cl | 18.5 (≈ 65.4 µM)
CCC(C)NC(=O)c1cn(-c2cccc(OC)c2)c(=O)c2ccccc12 (stereo unspecified) | 46.9 (≈ 134 µM)
O=C1CC(N2CCc3ccccc32)C(=O)N1c1ccccc1 (stereo unspecified) | 37.3 (≈ 128 µM)
COc1ccc2nc(NC(=O)c3ccccc3C(=O)O)sc2c1 | > 49.3
O=C(NC(=S)NCc1ccco1)c1cccc(Cl)c1 | 2.7 (≈ 9.16 µM)

Structure (SMILES) | solubility kinetic [µg/mL]
CC(NC(=O)c1ccccc1)C(=O)NC1CCCc2ccccc21 (stereo unspecified) | 14.7 (≈ 45.6 µM)
OCCN(CC#CC(O)(c1ccccc1)c1ccccc1)CCO | > 48.8
CSc1ccccc1NC(=O)COC(=O)c1cnc(C)cn1 | > 47.6
CC(NC(=O)c1ccc(Br)o1)C1CC2CCC1C2 (stereo unspecified) | 29.3 (≈ 93.8 µM)
Cc1nnc(SCC(=O)Nc2ccccc2)n(N)c1=O | > 43.7
O=C(OCC(=O)c1cccs1)c1ccc([N+](=O)[O-])o1 | 16.4 (≈ 58.3 µM)
COc1ccccc1CCC(=O)Nc1nccs1 | 8.6 (≈ 32.8 µM)
Cc1cnc(NC(=O)Cc2ccccc2Cl)s1 | 1.1 (≈ 4.12 µM)
Cc1ccnc(NC(=O)COc2ccc(Cl)cc2)n1 | 9.7 (≈ 34.9 µM)
COc1ccc(C(=O)CC(=O)C(=O)Nc2ccc(Cl)cc2)cc1 | 5.5 (≈ 16.6 µM)
COc1ccc(N2CCN(C(CNC(=O)C(C)(C)C)c3ccco3)CC2)cc1 (stereo unspecified) | 54.8 (≈ 142 µM)
N#Cc1ccc(-c2ccc(OCC3CNC(=O)O3)cc2)cc1 (stereo unspecified) | 11.3 (≈ 38.4 µM)
Cc1nn(CCCC(=O)Nc2ccccn2)c(C)c1[N+](=O)[O-] | > 45.5
Cc1cc(NC(=O)Cn2cnc3sccc3c2=O)no1 | 7.8 (≈ 26.9 µM)
CCCn1nc(C(=O)NC2CC2)c2ccccc2c1=O | > 40.7
CN1CCC(N(C)c2ccc(C(N)=O)cc2[N+](=O)[O-])CC1 | 40.1 (≈ 137 µM)
COc1ccc(NC(=O)CS(=O)(=O)c2ccccc2)cc1 | > 45.8
CC1CC(C)CN(C(=O)c2ccc3ccccc3c2)C1 (stereo unspecified) | 33.3 (≈ 125 µM)
Cc1ccc(CCC(=O)Nc2ccc(N(C)C)cc2)o1 | 17.5 (≈ 64.3 µM)
CCCCC(=O)Nc1cc(OC)c(NC(=S)NC)cc1OC | > 48.8
O=C(O)CNC(=O)C(c1ccccc1)c1ccccc1 | > 40.4
